Source: US8440640B2, “Methods and compositions for treating obesity and related disorders” (University of Medicine and Dentistry of New Jersey, priority 2008, dated 2013)
“Also recorded” adds a separate entry of the source. Where two headings read alike, the source gives them in different places. Blank lines part the entries; values can stand above or below the compound they belong to.

Key:
[1] = molecular target: AC5 (UniProt P30803); assay: Inhibition of recombinant AC5 (baculovirus overexpression system); assay type: biochemical; set-up: IC50 AC5
[2] = tested on: cultured cardiac myocytes; assay: ISO-induced apoptosis and contraction in cultured cardiac myocytes; assay type: cell-based
[3] = molecular target: AC2 (UniProt P26769); assay: Inhibition of recombinant AC2 (baculovirus overexpression system); settings: for IC50: read-out: IC50 AC2, recombinant AC proteins, Table 1; for inhibition of AC2: in the presence of Gs-α/GTPαS/forskolin
[4] = tested on: cardiac myocytes; assay: ISO-induced cAMP accumulation in cardiac myocytes; assay type: cell-based, mouse
Description: Decreases in cAMP in AC5 KO were observed only at high ISO concentrations. […] (Toya et al., J Mol Cell Cardiol., 1998; 30(1):97-108)

[5] = tested on: AC5; assay: Inhibition of recombinant AC5 (baculovirus overexpression system); assay type: biochemical; settings: for Selectivity ratio for AC5, AC5/AC2: ratio of IC50 for AC5 to that for AC2; for Selectivity ratio for AC5, AC5/AC3: ratio of IC50 for AC5 to that for AC3
[6] = molecular target: T1, AC3 (Rattus norvegicus, UniProt P21932); assay: Inhibition of recombinant AC3 (baculovirus overexpression system); assay type: biochemical; settings: for inhibition of AC3: in the presence of Gs-α/GTPαS/forskolin
T1 construct: made in house; host or cells: insect cells (baculovirus)
T1 sequence (P21932 1-1144): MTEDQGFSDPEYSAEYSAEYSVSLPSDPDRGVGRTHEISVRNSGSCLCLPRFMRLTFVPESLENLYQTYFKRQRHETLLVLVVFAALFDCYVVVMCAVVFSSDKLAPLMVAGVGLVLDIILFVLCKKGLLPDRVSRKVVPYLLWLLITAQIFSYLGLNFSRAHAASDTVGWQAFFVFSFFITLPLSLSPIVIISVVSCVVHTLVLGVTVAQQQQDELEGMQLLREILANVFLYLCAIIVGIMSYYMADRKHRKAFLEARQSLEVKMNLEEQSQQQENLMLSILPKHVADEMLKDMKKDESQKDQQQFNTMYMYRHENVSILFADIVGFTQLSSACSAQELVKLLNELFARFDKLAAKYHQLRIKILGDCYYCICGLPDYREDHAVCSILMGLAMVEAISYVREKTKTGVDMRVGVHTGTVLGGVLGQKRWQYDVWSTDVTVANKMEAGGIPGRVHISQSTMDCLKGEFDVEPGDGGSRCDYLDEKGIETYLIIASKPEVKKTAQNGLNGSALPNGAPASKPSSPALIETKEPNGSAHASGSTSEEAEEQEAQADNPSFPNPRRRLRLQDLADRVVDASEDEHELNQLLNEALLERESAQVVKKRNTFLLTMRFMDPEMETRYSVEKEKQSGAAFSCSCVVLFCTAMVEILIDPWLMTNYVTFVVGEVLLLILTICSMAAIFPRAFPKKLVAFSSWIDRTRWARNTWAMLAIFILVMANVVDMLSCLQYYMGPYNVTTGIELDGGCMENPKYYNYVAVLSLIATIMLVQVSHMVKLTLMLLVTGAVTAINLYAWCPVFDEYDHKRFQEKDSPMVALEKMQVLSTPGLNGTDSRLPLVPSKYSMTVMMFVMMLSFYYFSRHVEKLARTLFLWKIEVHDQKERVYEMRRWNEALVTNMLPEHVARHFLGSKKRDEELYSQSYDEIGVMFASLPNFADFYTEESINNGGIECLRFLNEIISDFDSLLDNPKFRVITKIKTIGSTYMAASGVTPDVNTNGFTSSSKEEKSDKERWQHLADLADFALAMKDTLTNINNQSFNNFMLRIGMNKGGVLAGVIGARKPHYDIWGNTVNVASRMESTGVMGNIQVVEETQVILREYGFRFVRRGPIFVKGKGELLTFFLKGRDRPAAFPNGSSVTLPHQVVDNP

[7] = tested on: myocardial infarction; assay: Survival after myocardial infarction; settings: in vivo
[8] = Tolerability of subcutaneous mini-osmotic pump infusion; assay type: in vivo; settings: infused subcutaneously, up to 3 months
[9] = tested on: brain function; assay: Bradykinesia and locomotor activity; settings: as observed in AC5 KO
[10] = tested on: AC6; assay: Forskolin-stimulated 32P-cAMP production in heart membranes from AC6 Tg mice; assay type: biochemical, mouse; settings: forskolin 50 mM, n=4
Procedure: (§1) Hearts were dissected from the mice and membrane preparations were prepared as described previously. Protein concentration was measured by the method of Bradford using bovine serum albumin as a standard. AC activity was measured as described previously. AC activity was linear within the incubation time up to 30 min. In order to harvest hearts for tissue cAMP content measurements, mice were allowed to acclimate to the surroundings in the laboratory for an hour before sacrifice. Freshly isolated hearts were briefly immersed in liquid nitrogen. The tissue was homogenized in ice-cold 6% percholic acid, and cAMP was extracted as described before. The concentration of cAMP was determined with an RIA kit (PerkinElmer Life Sciences, Boston, Mass., USA).

[11] = tested on: AC activity in the heart of dogs; assay: Forskolin-induced haemodynamic response in instrumented dog; assay type: in vivo; settings: AraAde 15 mg/kg intravenously, forskolin 50 nmol/kg
Description: An adult mongrel dog (16.5 kg, male) was surgically instrumented, for measurements of LV pressure (P), LV dP/dt, aortic pressure, ascending aortic blood flow (stroke volume) and mean aortic blood flow (cardiac output). (a) The response to intravenous infusion of Forskolin (50 nmol/kg) is shown on the phasic waveforms on the left. LV dP/dt, aortic flow (stroke volume) and mean aortic flow (cardiac output) are increased.

[12] = tested on: AC5; assay: Forskolin-stimulated 32P-cAMP production in heart membranes from AC5 Tg mice; assay type: biochemical, mouse; set-up: dose or concentration left out as unconfirmed; settings: n=4
[13] = tested on: C57Bl/6 mice with chronic ISO infusion; assay: Chronic ISO infusion model; assay type: in vivo, mouse
Description: Mice were then subjected to echocardiography (LVEF) (A); and tissue was harvested for pathological examination of myocardial apoptosis (by TUNEL) (B); and fibrosis (by PASR) (C). n=4-9.*p<0.05 vs. all other groups. […] Thus, this AC5 inhibitor is protective against the development of ISO-induced cardiomyopathy.

[14] = tested on: high-fat-diet-fed C57BL/6 mice; assay: High-fat-diet-fed C57BL/6 mice treated with AraAde; assay type: in vivo, mouse; set-up: insulin resistance, HOMA IR: unit not given here
[15] = molecular target: AC5 (UniProt P30803); assay: Inhibition of recombinant AC5 (baculovirus overexpression system); assay type: biochemical; set-up: IC50 for AC5; other: in the presence of Gs-α/GTPαS/forskolin; settings: in the presence of Gs-α/GTPαS/forskolin
[16] = tested on: AC activity in heart membranes; assay: ISO-stimulated AC activity in heart membranes of WT and AC5KO mice; assay type: biochemical, mouse; settings: 10 μM
Procedure: as §1
cAMP production in membranes from the hearts of AC5KO and WT at 6 months of age was examined. The steady state AC activity was determined as the maximal capacity of cAMP production in the presence of ISO (100 μM ISO+100 μM GTP), GTPγS (100 μM) or forskolin (100 μM). […] Basal cardiac function was not decreased, but the response to ISO and muscarinic inhibition of ISO were attenuated.

[17] = tested on: AC5; settings: cited from earlier work
[18] = tested on: cardiac myocytes; settings: cited from earlier work
[19] = tested on: AC2; settings: previously noted; cited from earlier work
[20] = occur in roughly half of administered patients; cited from earlier work
[21] = recombinant AC proteins, Table 1, read-out: IC50 AC5
[22] = recombinant AC proteins, Table 1, read-out: IC50 AC3

Structure (SMILES): C[C@H]1O[C@@H](n2cnc3c(N)ncnc32)C[C@@H]1O [2′5′-dd-Ado, 2′5′ dideoxyadenosine]
IC50 [1, 21]: 1.6 µM | ISO induced apoptosis in cultured cardiac myocytes [2]: prevented | contraction in cultured cardiac myocytes [2]: without impairing contraction | IC50 [3]: 2380 µM | maximum level of suppression of ISO-induced cAMP accumulation [4]: around 30% | Selectivity ratio for AC5, AC5/AC2 [5]: 0.00067 | Selectivity ratio for AC5, AC5/AC3 [5]: 0.0063 | IC50 [6]: 253 µM

IC50 ([1]; read-out: IC50 for AC5): 0.82 µM
Structure (SMILES): Nc1ncnc2c1ncn2[C@H]1C[C@H](OP(=O)(O)O)[C@@H](CO)O1 [2′-d-3′-AMP]

IC50 ([1]; read-out: IC50 for AC5): 14.6 µM
Structure (SMILES): Nc1ncnc2c1ncn2[C@@H]1O[C@H](CO)[C@@H](OP(=O)(O)O)[C@H]1O [3′-AMP]

Structure (SMILES): Nc1ncnc2c1ncn2[C@@H]1O[C@H](CO)[C@@H](O)[C@@H]1O [AraAde, 9-β-D-arabinofuranosyladenine]
survival rate after myocardial infarction [7]: increased | tolerability [8]: well tolerated | IC50 [1, 21]: 9.8 µM | ISO induced apoptosis in cultured cardiac myocytes [2]: prevented | IC50 [3]: 7200 µM | bradykinesia and impaired locomotor activity [9]: does not induce | maximum level of suppression of ISO-induced cAMP accumulation [4]: around 30% | forskolin induced cAMP production, hearts from AC6 Tg [10]: not | forskolin-induced LV dP/dt max [11]: attenuated | forskolin-induced cardiac output [11]: attenuated | forskolin induced cAMP production, hearts from AC5 Tg [12]: dramatically decreased | IC50 [6, 22]: 375 µM | ISO-induced cardiac fibrosis (PASR) ([13]; AraAde 100 μg/g/day): significantly inhibited | ISO-induced myocardial apoptosis (TUNEL) ([13]; AraAde 100 μg/g/day): significantly inhibited | chronic ISO-induced decreases in LVEF ([13]; AraAde 20 mg/kg/day for 1 week, echocardiography): inhibited | exercise performance, maximum treadmill speed ([13]; chronic ISO 60 mg/kg/day for 1 week, AraAde 15 mg/kg/day, n=4-6): rescued exercise performance | plasma insulin level ([14]; 15 mg/kg/day, high-fat diet): unchanged; also recorded: the elevation in insulin was minimal | fasting blood glucose ([14]; 15 mg/kg/day, high-fat diet, vs vehicle): decreased | glucose tolerance ([14]; 94 days high fat diet, 42 days AraAde): improved | insulin resistance, HOMA IR ([14]; terminal blood after 6-7 hour fast, n=2): 6.38

inhibition of AC2 [3]: only to a modest degree | inhibition of AC5 [15]: potently inhibited | inhibition of AC3 [6]: only to a modest degree
Structure (SMILES): Nc1ncnc2c1ncn2C1CCCC1 [CPA, 9-(cyclopentyl) adenine]

Structure (SMILES): C[N+](C)(C)CCOC(N)=O [Carbachol]
inhibition of ISO-stimulated AC activity in AC5KO ([16]; AC5KO heart membranes): did not inhibit | decrease of ISO-stimulated AC activity in WT ([16]; WT heart membranes): 21+/−3.4%

Structure (SMILES): Nc1ncc2c(n1)CC(c1ccco1)CC2=O (stereo not drawn) [NKY80, 2-amino-7-(2-furanyl)-7,8-dihydro-5(6H)-quinazoline]
inhibition of purified AC5 protein in vitro [17]: moderate inhibition | inhibition of cAMP accumulation in cultured cardiac myocytes [18]: does not inhibit

IC50 [1, 21]: 0.32 µM | IC50 [3]: 65.3 µM | IC50 [6, 22]: 11.1 µM
Structure (SMILES): Nc1ncnc2c1ncn2C1CCC(C(=O)NO)C1 (stereo not drawn) [PMC-6]
Selectivity ratio for AC5, AC5/AC2 [5]: 0.0049 | Selectivity ratio for AC5, AC5/AC3 [5]: 0.029

Structure (SMILES): Nc1ncnc2c1ncn2C1CCCO1 (stereo not drawn) [THFA, 9-(tetrahydro-2-furyl) adenine]
inhibition of AC2 [3]: only to a modest degree | selectivity ratio between AC5 and AC2 [5]: 130 | selectivity ratio between AC6 and AC2 [19]: 1.8 | inhibition of AC5 [15]: potently inhibited | inhibition of AC3 [6]: only to a modest degree

Structure (SMILES): Nc1nc(F)nc2c1ncn2[C@@H]1O[C@H](CO)[C@@H](O)[C@@H]1O [fludarabine]
adverse effects in patients [20]: severe adverse effects including bone marrow suppression
